Data published in patent publication US20210061861A1, “D-PEPTIDIC COMPOUNDS FOR VEGF” (Reflexion Pharmaceuticals, Inc., priority 2019, published 2021).
Several values for one entry are separate records, joined by “and”; a condition that tells them apart may be missing. Equal entries are not always repeated. Bridges are numbered along the chain shown (N, C = ends). Where no end group is shown, it is not given here. [ ]: non-standard residue; d: D form.

What was measured:
D-VEGF-A = assay: competitive phage ELISA, D-VEGF-A binding of L-peptidic compounds; details: D-VEGF-A binding activity
Procedure: Compounds of interest were assessed for VEGF-A binding in a competitive phage ELISA assay.

[1] = system: VEGF-A165-induced vascular leakage; assay: rabbit eye model of wet AMD, fluorescein angiography; format: in vivo; details: single intravitreal dose 1.0 mg
Source text: FIG. 44A-44B show in vivo activity of D-protein RFX-980869 in a rabbit eye model of wet AMD. (FIG. 44A) Representative fluorescein angiography (FA) images depicting the extent of VEGF-A165-induced vascular leakage at Day 5 and Day 26 post administration of respective drugs (control=no drug treatment). (FIG. 44B) Plots of individual FA scores at Day 5 and Day 26. Scoring is as follows: 0=major vessels straight with some tortuosity of small vessels and no dilation, 1=increased tortuosity of major vessels and some dilation, 2=leakage between major vessels and significant dilation, 3=leakage between major and minor vessels and minor vessels still visible, 4=leakage between major and minor vessels and minor vessels poorly visible or not visible. N=5 rabbits per group (10 eyes). All data is plotted as mean±SEM. (****p<0.0001, Mann-whitney test)
In the rabbit eye model for wet AMD, intravitreal challenge with exogenous VEGF-A165 induces vascular leakage of the retina that can be monitored using fluorescein angiography (FA). VEGF-A blockade can prevent the diffuse leakage of fluorescein into the eye, which serves as a measure of efficacy. […] After a single intravitreal administration of RFX-980869 at 0.25 mg or 1.0 mg per eye, rabbits were challenged with exogenous VEGF-A twice over a 1-month period (Day 2 and Day 23) and their eyes were examined three days later (Day 5 and Day 26). […]

MC38 colon cancer tumors = assay: MC38 syngeneic tumor model in C57BL6 mice; format: in vivo, mouse
Source text: To assess the tumor growth inhibition potential of RFX-980869, the cross-reactivity of RFX-980869 with mouse VEGF-A (data not shown) was studied and used the syngeneic MC38 mouse tumor model. MC38 colon cancer tumors were established in C57BL6 mice transgenic for human PD-1, and reached 82 mm3 prior to initiation of treatment.
Female C57BL6 mice transgenic for human PD-1 (12-13 weeks) were purchased from Beijing Biocytogen Co.). […] MC38 tumor cells (1×10^6) were implanted subcutaneously in the right front flank and tumors were allowed to establish until the mean volume was 82 mm^3. Mice were randomized into treatment groups (N=6 per group) on Day 0 when treatment initiation began. […] All data is plotted as mean ±SEM.

[2] = subcutaneous immunization in BALB/c mice; details: Day 42 serum; 25 μg s.c. Days 0, 21, 35, adjuvant on Day 0
Procedure: Female BALB/c mice (6-8 weeks) were randomized into immunization groups on Day 0 (n=5 per group) Immunizations were performed on Days 0, 21, 35 by subcutaneous injection of 25 μg of antigen. Antigens were emulsified in adjuvant (TiterMax) for injection on Day 0 and administered in PBS for Days 21 and 35. Serum pre-bleeds were performed on Days 0, 21, 35 prior to immunizations. Final bleeds for max titer response were taken on Day 42.

[3] = anti-drug antibodies in serum of the MC38 tumor study; format: in vivo, mouse; details: Day 22 serum, low and high dose groups
Source text: FIG. 45A-45D show tumor growth inhibition activity of RFX-980869 and lack of immunogenicity. […] N=6 mice per group. (FIG. 45B) Day 15 tumor volumes (*p<0.05, Mann-whitney test) (FIG. 45C) Anti-drug-antibodies from MC38 tumor study measured in Day 22 serum samples using an ELISA for antigen-specific serum IgG. (FIG. 45D) Anti-drug-antibody titers measured from Day 42 serum after subcutaneous immunization of corresponding drugs in BALB/c mice. N=5 mice per group. All data is plotted as mean±SEM.

[4] = molecular target: T1, VEGF-A121 binding to VEGFR1-Fc (Homo sapiens, UniProt P15692); assay: equilibrium binding VEGF-A121/VEGFR1 blocking ELISA; format: biochemical; details: IC50, blocking VEGF-A binding to VEGFR1-Fc, 150 pM VEGF-A, overnight incubation
T1 construct: purchased Acro Biosystems (VEGF-A121); R&D Systems (VEGFR1-Fc) VE1-H82E7; 3516-FL-050
T1 sequence (P15692 27-147 isoform P15692-9 limits assumed): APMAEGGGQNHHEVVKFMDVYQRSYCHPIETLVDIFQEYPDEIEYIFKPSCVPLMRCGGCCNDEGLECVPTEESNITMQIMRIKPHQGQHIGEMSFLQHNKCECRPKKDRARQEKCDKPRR
Source text: Biotinylated human VEGF-A121 (isoform 121) was purchased from Acro Biosystems (cat #VE1-H82E7). VEGFR-1-Fc was purchased from R&D Systems (cat #3516-FL-050).
The following day, coated wells were blocked with Super Block (Rockland) for 2 hr with shaking at room temp.
Data plotted are mean±standard deviation of triplicate measurements. IC50 values were derived from 3-parameter fits using Prism (GraphPad) and the error reported is derived from fits.

VEGF-A = molecular target: T2, VEGF-A (Homo sapiens, UniProt P15692); assay: SPR binding of D-peptidic compounds to L-VEGF-A; set-up: Biotinylated VEGF-A(8-109) was immobilized on a biotin CAPture chip; details: for affinity improvement over 11055: SPR KD ratio versus parent 11055
T2 sequence (P15692 214-315): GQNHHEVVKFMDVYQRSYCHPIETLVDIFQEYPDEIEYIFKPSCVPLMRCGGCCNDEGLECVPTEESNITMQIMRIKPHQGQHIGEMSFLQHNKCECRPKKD
Procedure: Surface plasmon resonance (SPR) binding measurements were carried out on a Biacore S200 (GE). Biotinylated VEGF-A(8-109) was immobilized on a biotin CAPture chip (GE) and serial dilutions of D-proteins were flowed over the chip at 30 μL/min in running buffer (10 mM Hepes, pH 7.4, 150 mM NaCl, 0.05% P20). […] All measurements were carried out at 25° C. SPR data are representative of multiple independent titrations. Kinetic fits were performed using Biacore software using a global single site binding model.

[5] = molecular target: T1, VEGF-A121 binding to VEGFR1-Fc; assay: non-equilibrium VEGF-A blocking ELISA on VEGFR1-Fc; format: biochemical; details: for improvement of IC50 over 11055: non-equilibrium blocking ELISA
[6] = system: VEGF-A signaling through VEGFR2; assay: VEGFR2 luciferase reporter cell signaling assay (KDR/NFAT-RE HEK293); format: cell-based; details: 150 pM VEGF-A; read-out: IC50, inhibition of VEGFR2 signaling (luciferase)
Procedure: Here VEGF-A activates VEGFR2 signaling in 293 cells resulting in luciferase expression as a functional readout. Inhibition of VEGF-A signaling in this system results in a loss of luciferase signal.
Measurement of VEGF cellular signaling was performed using the VEGF Bioassay (Promega). Briefly, HEK293 cells are engineered to express VEGFR-2 coupled to a luciferase response element (KDR/NFAT-RE HEK293). VEGF signaling through VEGFR-2 mediates expression of luciferase which can be quantified using bioluminescence. […] Following incubation Bio-Glo is added to wells according to the manufacturer's protocol and relative luminescence units (RLUs) were measured on a PerkinElmer 2300 Enspire Multimode plate reader. Data plotted are mean±standard deviation of triplicate measurements. IC50 values were derived from 3-parameter fits using Prism (GraphPad) and error reported are derived from fits.

Source text for HUVEC cell proliferation: Here, HUVEC cell proliferation is increased in the presence of recombinant VEGF-A and antagonist compounds that block VEGF-A signaling reduce HUVEC cell proliferation.

tidqwllknakedaiaelkkcGitephvisfinhapyvshvnGlkanilkaha [Compound 1.1.1]
IC50 (D-VEGF-A): 20 to 34 nM

aflibercept
vascular leakage at Day 26 [1]: completely blocked vascular leakage

nivolumab
tumor growth versus vehicle control group (MC38 colon cancer tumors; 1 mg/kg biweekly, i.p.): failed to show tumor growth inhibition
MC38 tumor growth curves (MC38 colon cancer tumors; FIG. 45A, over both dose levels): dose-dependent efficacy
tumor growth inhibition (MC38 colon cancer tumors; day 15, 3 mg/kg biweekly): 48%
anti-drug-antibody IgG titer after immunization [2]: strong IgG titers
anti-drug-antibodies, antigen-specific serum IgG titer [3]: saturating levels of IgG titer

[dY][dH][dI][dQ][dW][dV][dC][dK][dN][dA][dK][dE][dD][dA][dI][dA][dE][dL][dK][dK][dA]G[dI][dT][dE][dP][dH][dV][dI][dS][dF][dI][dN][dH][dA][dP][dN][dC][dS][dH][dV][dN]G[dL][dK][dN][dA][dI][dL][dK][dA][dH][dA]-NH2 (disulfide 7-38) [Compound 979110, yhiqwvcknakedaiaelkkaGitephvisfinhapncshvnGlknailkaha]
fold weaker than bevacizumab (Avastin) (HUVEC cell proliferation; HUVEC proliferation): 185 fold
potency improvement over 11055 (HUVEC cell proliferation; HUVEC proliferation): 4 fold
IC50 (HUVEC cell proliferation; read-out: IC50 for inhibition of cell proliferation in response to VEGF signaling, HUVEC, recombinant VEGF-A): 131 nM
IC50 [4]: 7 nM and 7.6 nM
affinity improvement over 11055 (VEGF-A): ~10 fold
affinity improvement over 11055 (VEGF-A; listed as RFX-979110): 19 fold
Kd (VEGF-A; VEGF-A binding affinity (KD) measured by SPR, running text and figure legends, L-VEGF-A): 3.6 nM and 2.3 nM
IC50 [5]: 3.5 nM
improvement of IC50 over 11055 [5]: 14.8 fold
improvement of IC50 over 11055 ([5]; listed as RFX-979110): 15 fold
IC50 [6]: 6.1 nM
